Key:
[1] = target: T1, α1A adrenoceptor (Rattus norvegicus, UniProt P43140); assay: Receptor binding assay, displacement of [3H]prazosin, rat submaxillary membranes; details: for Ki: [3H]prazosin displacement, rat submaxillary membranes, read-out: α1A (Rat submaxillary) Ki; for Selectivity α1B/α1A: ratio of Ki α1B (rat liver) / α1A (rat submaxillary)
T1 construct: from tissue; host or cells: rat submaxillary gland membranes
T1 sequence (P43140 1-466): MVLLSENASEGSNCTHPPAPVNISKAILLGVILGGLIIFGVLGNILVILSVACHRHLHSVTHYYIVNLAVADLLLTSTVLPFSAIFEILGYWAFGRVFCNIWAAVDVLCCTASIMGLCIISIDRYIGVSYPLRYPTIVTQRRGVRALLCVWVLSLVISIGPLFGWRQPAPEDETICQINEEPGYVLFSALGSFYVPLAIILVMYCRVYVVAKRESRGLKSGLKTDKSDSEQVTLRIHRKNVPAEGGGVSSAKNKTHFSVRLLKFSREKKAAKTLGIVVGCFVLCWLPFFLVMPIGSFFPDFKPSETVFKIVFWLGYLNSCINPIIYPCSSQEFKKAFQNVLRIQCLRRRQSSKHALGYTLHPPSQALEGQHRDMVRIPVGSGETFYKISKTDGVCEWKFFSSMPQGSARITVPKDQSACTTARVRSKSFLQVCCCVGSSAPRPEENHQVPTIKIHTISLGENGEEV
Procedure: Receptor binding assays were performed using native α-adrenoceptors.
(§1) Submaxillary glands were isolated immediately after sacrifice. The liver was perfused with buffer (Tris HCl 50 mM, NaCl 100 mM, 10 mM EDTA pH 7.4). The tissues were homogenised in 10 volumes of buffer (Tris HCl 50 mM, NaCl 100 mM, EDTA 10 mM, pH 7.4). The homogenate was filtered through two layers of wet gauze and filtrate was centrifuged at 500 g for 10 min. The supernatant was subsequently centrifuged at 40,000 g for 45 min. The pellet thus obtained was resuspended in the same volume of assay buffer (Tris HCl 50 mM, EDTA 5 mM, pH 7.4) and were stored at −70° C. until the time of assay.
(§2) The membrane homogenates (150-250 μg protein) were incubated in 250 μl of assay buffer (Tris HCl 50 mM, EDTA 5 mM, pH 7.4) at 24-25° C. for 1 h. Non-specific binding was determined in the presence of 300 nM prazosin. The incubation was terminated by vacuum filtration over GF/B fibre filters. The filters were then washed with ice cold 50 mM Tris HCl buffer (pH 7.4). The filtermats were dried and bound radioactivity retained on filters was counted.The IC50 & Kd were estimated by using the non-linear curve fitting program using G Pad Prism software.

[2] = target: T2, α1D adrenoceptor (aorta) (Rattus norvegicus, UniProt P23944); assay: In vitro functional study, antagonism of norepinephrine-induced contraction of aorta; format: biochemical; details: tested compound at 0.1, 1 and 10 mM, read-out: α Adrenoceptor Subtype (pKB) α1D (converted)
T2 construct: Isolated tissues were mounted in organ bath containing Krebs Henseleit buffer; from tissue; host or cells: isolated aorta of male wistar rats
T2 sequence (P23944 1-561): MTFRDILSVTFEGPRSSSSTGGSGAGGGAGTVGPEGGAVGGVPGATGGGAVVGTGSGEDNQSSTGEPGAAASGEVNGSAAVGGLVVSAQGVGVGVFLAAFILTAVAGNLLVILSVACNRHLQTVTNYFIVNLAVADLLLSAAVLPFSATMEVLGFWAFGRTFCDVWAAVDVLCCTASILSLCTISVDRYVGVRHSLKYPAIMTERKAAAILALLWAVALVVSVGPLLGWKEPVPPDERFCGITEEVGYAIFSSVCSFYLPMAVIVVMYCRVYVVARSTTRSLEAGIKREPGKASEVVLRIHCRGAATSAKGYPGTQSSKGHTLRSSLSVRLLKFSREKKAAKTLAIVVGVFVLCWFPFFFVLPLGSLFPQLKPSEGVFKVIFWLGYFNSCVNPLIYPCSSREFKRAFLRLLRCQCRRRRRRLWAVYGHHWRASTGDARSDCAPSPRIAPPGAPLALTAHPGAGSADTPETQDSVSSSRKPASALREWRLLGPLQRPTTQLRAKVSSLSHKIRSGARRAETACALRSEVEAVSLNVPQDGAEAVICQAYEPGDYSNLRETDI
Text: (§3) In order to study selectivity of action of these compounds towards different α-adrenoceptor subtypes, the ability of these compounds to antagonise α1-adrenoceptor agonist induced contractile response on aorta (α1Dprostate (α1A and spleen (α1B was studied. Aorta and spleen tissues were isolated from urethane anaesthetised (1.5 gm/kg) male wistar rats. Isolated tissues were mounted in organ bath containing Krebs Henseleit buffer of following composition (mM): NaCl 118; KCl 4.7; CaCl2 2.5; MgSO4. 7H2O 1.2; NaHCO3 25; KH2PO41.2; glucose 11.5. Buffer was maintained at 37° C. and aereated with a mixture of 95% O2 and 5% CO2. A resting tension of 2 g (aorta) or 1 g (spleen and prostate)was applied to tissues. Contractile response was monitored using a force displacement transducer and recorded on chart recorders. Tissues were allowed to equilibrate for 2 hours. At the end of equilibration period, concentration response curves to norepinephrine (aorta) and phenylepinephrine (spleen and prostate) were obtained in absence and presence of tested compound (at concentration of 0.1,1 and 10 mM). Antagonist affinity was calculated and expressed as pKB vales in Table II.

[3] = target: T3, α1A adrenoceptor (prostate) (Rattus norvegicus, UniProt P43140); assay: In vitro functional study, antagonism of phenylepinephrine-induced contraction of prostate; format: biochemical; details: for Selectivity α1A/α1B: functional assays, from pKB values; for Kb: prostate, phenylepinephrine, tested compound at 0.1, 1 and 10 mM, read-out: α Adrenoceptor Subtype (pKB) α1A (converted)
T3 construct: from tissue; host or cells: isolated prostate tissue
T3 sequence (P43140 1-466): T1 sequence (P43140 1-466)
Text: as §3

[4] = target: T4, α1B adrenoceptor (Rattus norvegicus, UniProt P15823); assay: Receptor binding assay, displacement of [3H]prazosin, rat liver membranes; details: [3H]prazosin displacement, rat liver membranes; read-out: α1B (Rat liver) Ki
T4 construct: from tissue; host or cells: rat liver membranes
T4 sequence (P15823 1-515): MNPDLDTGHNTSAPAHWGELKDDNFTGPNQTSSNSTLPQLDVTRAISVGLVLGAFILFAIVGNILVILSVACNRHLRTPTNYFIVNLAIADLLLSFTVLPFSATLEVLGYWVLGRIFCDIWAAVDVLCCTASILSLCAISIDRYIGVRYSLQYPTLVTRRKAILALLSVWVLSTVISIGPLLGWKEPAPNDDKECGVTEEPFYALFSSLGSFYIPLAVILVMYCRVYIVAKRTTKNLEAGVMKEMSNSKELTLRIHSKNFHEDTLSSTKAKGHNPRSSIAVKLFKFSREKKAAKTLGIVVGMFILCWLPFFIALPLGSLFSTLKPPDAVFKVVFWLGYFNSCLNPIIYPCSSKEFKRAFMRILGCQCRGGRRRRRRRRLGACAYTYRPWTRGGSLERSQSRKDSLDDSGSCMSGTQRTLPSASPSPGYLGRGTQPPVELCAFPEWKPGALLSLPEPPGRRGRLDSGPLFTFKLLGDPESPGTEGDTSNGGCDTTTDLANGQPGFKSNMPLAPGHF
Procedure: Receptor binding assays were performed using native α-adrenoceptors. The affinity of different compounds for α1A and α1B adrenoceptor subtypes was evaluated by studying their ability to displace specific [^3H]prazosin binding from the membranes of rat submaxillary and liver respectively (Michel et al, Br J Pharmacol, 98, 883-889 (1989)). The binding assays were performed according to U'Prichard et al. (Eur J Pharmacol, 50:87-89 (1978)) with minor modifications.
as §1
as §2, with “software. The value of inhibition constant Ki was calculated from competitive binding studies by using Cheng & Prusoff equation (Cheng & Prusoff, Biochem Pharmacol, 1973,22: 3099-3108), Ki=IC50/(1+L/Kd) where L is the concentration of [^3H]prazosin used in the particular experiment (Table I).” for “software.”

[5] = target: T5, α1B adrenoceptor (spleen) (Rattus norvegicus, UniProt P15823); assay: In vitro functional study, antagonism of phenylepinephrine-induced contraction of spleen; format: biochemical; details: tested compound at 0.1, 1 and 10 mM, read-out: α Adrenoceptor Subtype (pKB) α1B (converted)
T5 construct: Isolated tissues were mounted in organ bath containing Krebs Henseleit buffer; from tissue; host or cells: isolated spleen of male wistar rats
T5 sequence (P15823 1-515): T4 sequence (P15823 1-515)
Text: as §3

Row | SMILES | Ki [1] [nM] | Selectivity α1B/α1A [1] | melting point [°C] | Kb [2] [nM] | Selectivity α1A/α1B [3] | Kb [3] [nM] | Ki [4] [nM] | Kb [5] [nM]
1 | CCCCCCOc1ccccc1N1CCN(CCCN2C(=O)C3CC=CCC3C2=O)CC1.Cl (stereo not shown) [Compound 25, 2-[3-{4-(2-n-Hexyloxyphenyl)piperazin-1-yl}propyl]-3a,4,7,7a-tetrahydro-1H-isoindole-1,3(2H)-dione hydrochloride] | 3.3 | >151 | 165 to 166 | 1 | 54 | 1.26 | > 500 | 67.6
2 | COc1ccccc1N1CCN(C(C)CCN2C(=O)C3CC=CCC3C2=O)CC1.Cl (stereo not shown) [Compound 29, 2-[3-{4-(2-Methoxyphenyl)piperazin-1-yl}-3-methylpropyl]-3a,4,7,7a-tetrahydro-1H-isoindole-1,3(2H)-dione hydrochloride] | 3.45 | 205 | 219 to 220 | 33.9 | 18 | 87.1 | 708 | 1580

Source: patent publication US6914064B2, “1,4-Disubstituted piperazine derivatives useful as uro-selective α1-adrenoceptor blockers” (Ranbaxy Laboratories Limited, priority 2000, dated 2005)
